Reference: US11033539B2, “Compounds of formulas (VII), (VIII), (IX), (XI), (XII), (XIII), and (XIV) as muscarinic receptor 4(M4) antagonists for treating neurological diseases” (Neurocrine Biosciences, Inc., priority 2015, dated 2021)

How the values were obtained:
human M1 receptor = human M1 receptor (Homo sapiens (Human), UniProt P11229); assay: Radioligand (tritiated N-methylscopolamine) binding assay, M1; details: CHO cell membranes expressing human M1; 1.5 nM tritiated N-methylscopolamine; 90 min, 37° C.; read-out: Ki against M1 receptor (Table 21, M1)
How it was run: (§1)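 Ki values come from displacement of 1.5 nM radioligand from membranes of receptor-expressing CHO cells, with filter-trapped radioactivity counted after rapid vacuum filtration. Twelve compound concentrations (10 μM to […]) were incubated for 90 min at 37 °C at pH 7.4.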

human M5 receptor = human M5 receptor (Homo sapiens (Human), UniProt P08912); assay: Radioligand (tritiated N-methylscopolamine) binding assay, M5; details: CHO cell membranes expressing human M5; 1.5 nM tritiated N-methylscopolamine; 90 min, 37° C.; read-out: Ki against M5 receptor (Table 21, M5)
How it was run: as §1

human M3 receptor = human M3 receptor (Homo sapiens (Human), UniProt P20309); assay: Radioligand (tritiated N-methylscopolamine) binding assay, M3; details: CHO cell membranes expressing human M3; 1.5 nM tritiated N-methylscopolamine; 90 min, 37° C.; read-out: Ki against M3 receptor (Table 21, M3)
How it was run: as §1

human M4 receptor = human M4 receptor (Homo sapiens (Human), UniProt P08173); assay: Radioligand (tritiated N-methylscopolamine) binding assay, M4; details: Ki against the M4 receptor; membranes from CHO cells expressing human M4; tritiated N-methylscopolamine 1.5 nM; read-out: Ki
How it was run: as §1

human M2 receptor = human M2 receptor (Homo sapiens (Human), UniProt P08172); assay: Radioligand (tritiated N-methylscopolamine) binding assay, M2; details: CHO cell membranes expressing human M2; 1.5 nM tritiated N-methylscopolamine; 90 min, 37° C.; read-out: Ki against M2 receptor (Table 21, M2)
How it was run: as §1

human M1 receptor, sequence (P11229 whole entry): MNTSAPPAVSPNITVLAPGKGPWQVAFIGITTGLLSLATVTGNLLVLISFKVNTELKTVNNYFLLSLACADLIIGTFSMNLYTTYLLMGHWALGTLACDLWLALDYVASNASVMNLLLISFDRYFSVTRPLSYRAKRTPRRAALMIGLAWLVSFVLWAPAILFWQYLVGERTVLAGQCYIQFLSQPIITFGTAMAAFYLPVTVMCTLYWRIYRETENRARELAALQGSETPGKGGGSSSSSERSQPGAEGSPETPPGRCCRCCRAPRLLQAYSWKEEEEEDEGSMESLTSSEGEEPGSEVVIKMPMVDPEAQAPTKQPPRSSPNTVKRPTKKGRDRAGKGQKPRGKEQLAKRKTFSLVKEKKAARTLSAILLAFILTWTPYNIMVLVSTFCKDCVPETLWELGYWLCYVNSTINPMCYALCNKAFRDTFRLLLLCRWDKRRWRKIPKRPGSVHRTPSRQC
human M2 receptor, sequence (P08172 whole entry): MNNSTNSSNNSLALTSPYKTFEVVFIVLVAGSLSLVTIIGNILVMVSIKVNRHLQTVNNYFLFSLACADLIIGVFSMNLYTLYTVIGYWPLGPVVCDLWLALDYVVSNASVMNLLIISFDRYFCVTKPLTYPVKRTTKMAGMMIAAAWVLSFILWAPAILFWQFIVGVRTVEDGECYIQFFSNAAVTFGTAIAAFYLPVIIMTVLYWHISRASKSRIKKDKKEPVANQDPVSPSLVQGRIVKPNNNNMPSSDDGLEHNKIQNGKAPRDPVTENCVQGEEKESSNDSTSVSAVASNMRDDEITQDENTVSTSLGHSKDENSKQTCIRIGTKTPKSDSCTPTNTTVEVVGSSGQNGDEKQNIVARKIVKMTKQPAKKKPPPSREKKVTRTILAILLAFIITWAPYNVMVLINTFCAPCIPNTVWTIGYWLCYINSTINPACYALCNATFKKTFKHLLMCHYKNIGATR
human M5 receptor, sequence (P08912 whole entry): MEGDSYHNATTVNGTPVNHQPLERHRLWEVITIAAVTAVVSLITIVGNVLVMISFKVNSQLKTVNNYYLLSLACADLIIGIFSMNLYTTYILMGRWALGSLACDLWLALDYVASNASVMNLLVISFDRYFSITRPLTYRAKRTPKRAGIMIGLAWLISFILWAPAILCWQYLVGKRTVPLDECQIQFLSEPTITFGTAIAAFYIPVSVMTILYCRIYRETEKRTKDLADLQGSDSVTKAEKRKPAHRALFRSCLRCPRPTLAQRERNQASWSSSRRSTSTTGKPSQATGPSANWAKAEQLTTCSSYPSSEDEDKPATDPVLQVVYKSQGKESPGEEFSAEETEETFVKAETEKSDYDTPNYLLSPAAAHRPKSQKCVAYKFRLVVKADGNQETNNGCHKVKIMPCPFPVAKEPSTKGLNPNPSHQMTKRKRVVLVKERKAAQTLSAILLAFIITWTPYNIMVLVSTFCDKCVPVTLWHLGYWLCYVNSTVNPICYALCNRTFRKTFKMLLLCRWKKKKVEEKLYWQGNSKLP
human M3 receptor, sequence (P20309 whole entry): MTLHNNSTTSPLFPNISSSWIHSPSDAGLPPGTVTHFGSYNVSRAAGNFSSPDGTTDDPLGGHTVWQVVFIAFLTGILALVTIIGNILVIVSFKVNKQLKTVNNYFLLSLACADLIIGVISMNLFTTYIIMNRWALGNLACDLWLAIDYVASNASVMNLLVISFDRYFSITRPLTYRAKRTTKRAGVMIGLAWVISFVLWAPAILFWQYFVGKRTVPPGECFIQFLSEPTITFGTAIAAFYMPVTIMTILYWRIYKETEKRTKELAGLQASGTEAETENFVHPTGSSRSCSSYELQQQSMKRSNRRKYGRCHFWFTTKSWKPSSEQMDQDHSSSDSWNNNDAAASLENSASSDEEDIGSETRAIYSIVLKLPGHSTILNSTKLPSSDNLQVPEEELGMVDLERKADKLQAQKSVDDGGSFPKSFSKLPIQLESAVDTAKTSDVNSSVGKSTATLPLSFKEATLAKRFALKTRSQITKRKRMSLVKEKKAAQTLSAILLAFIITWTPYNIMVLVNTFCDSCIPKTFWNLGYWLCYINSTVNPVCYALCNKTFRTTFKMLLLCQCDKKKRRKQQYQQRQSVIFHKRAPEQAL
human M4 receptor, sequence (P08173 whole entry): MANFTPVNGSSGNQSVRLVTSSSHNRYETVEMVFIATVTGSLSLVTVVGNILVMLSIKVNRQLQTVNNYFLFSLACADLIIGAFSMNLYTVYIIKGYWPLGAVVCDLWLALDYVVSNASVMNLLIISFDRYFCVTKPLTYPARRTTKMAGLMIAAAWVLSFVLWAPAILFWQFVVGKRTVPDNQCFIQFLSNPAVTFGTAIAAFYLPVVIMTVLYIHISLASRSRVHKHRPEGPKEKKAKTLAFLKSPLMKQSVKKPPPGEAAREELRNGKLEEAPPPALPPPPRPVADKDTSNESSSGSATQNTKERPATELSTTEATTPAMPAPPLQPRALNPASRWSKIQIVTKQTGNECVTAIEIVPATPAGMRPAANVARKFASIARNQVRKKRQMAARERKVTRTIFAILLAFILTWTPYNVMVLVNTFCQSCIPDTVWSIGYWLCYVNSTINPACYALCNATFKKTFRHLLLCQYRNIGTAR

| SMILES | Ki (human M1 receptor) | Ki (human M5 receptor) | Ki (human M3 receptor) | Ki (human M4 receptor) | Ki (human M2 receptor) |
| --- | --- | --- | --- | --- | --- |
| O=C(NCCC1CCN(Cc2ccccc2)CC1)N1CCN(c2ncc(C(F)(F)F)cn2)CC1 [5-24, N-[2-(1-benzylpiperidin-4-yl)ethyl]-4-[5-(trifluoromethyl)pyrimidin-2-yl]piperazine-1-carboxamide] | 100 to 1000 nM | > 1000 nM | > 1000 nM | < 10 nM | 10 to 100 nM |
| C[C@@H]1CN(c2ncc(C(F)(F)F)cn2)C[C@H](C)N1C(=O)NCCC1CCN(Cc2ccccc2)CC1 [5-27, (2R,6S)-N-[2-(1-benzylpiperidin-4-yl)ethyl]-2,6-dimethyl-4-[5-(trifluoromethyl)pyrimidin-2-yl]piperazine-1-carboxamide] | 100 to 1000 nM | > 1000 nM | > 1000 nM | < 10 nM | 100 to 1000 nM |
| C[C@@H]1CN(c2ncc(C(F)(F)F)c(N)n2)C[C@H](C)N1C(=O)NCCC1CCN(Cc2ccccc2)CC1 [5-28, (2R,6S)-4-[4-amino-5-(trifluoromethyl)pyrimidin-2-yl]-N-[2-(1-benzylpiperidin-4-yl)ethyl]-2,6-dimethylpiperazine-1-carboxamide] | 100 to 1000 nM | > 1000 nM | > 1000 nM | < 10 nM | 100 to 1000 nM |
| C[C@@H]1CN(c2ncc(C(F)(F)F)c(N)n2)CCN1C(=O)NCCC1CCN(Cc2ccccc2)CC1 [5-29, (2R)-4-[4-amino-5-(trifluoromethyl)pyrimidin-2-yl]-N-[2-(1-benzylpiperidin-4-yl)ethyl]-2-methylpiperazine-1-carboxamide] | > 1000 nM | > 1000 nM | > 1000 nM | < 10 nM | 100 to 1000 nM |
| Nc1nc(N2CCN(C(=O)NCCC3CCN(Cc4ccccc4)CC3)CC2)ncc1C(F)(F)F [5-30, 4-[4-amino-5-(trifluoromethyl)pyrimidin-2-yl]-N-[2-(1-benzylpiperidin-4-yl)ethyl]piperazine-1-carboxamide] | > 1000 nM | > 1000 nM | > 1000 nM | < 10 nM | 100 to 1000 nM |
| C[C@@H]1CN(c2ncc(Br)cn2)CCN1C(=O)NCCC1CCN(Cc2ccccc2)CC1 [5-31, (2R)-N-[2-(1-benzylpiperidin-4-yl)ethyl]-4-(5-bromopyrimidin-2-yl)-2-methylpiperazine-1-carboxamide] | 10 to 100 nM | 100 to 1000 nM | 10 to 100 nM | < 10 nM | < 10 nM |
| C[C@@H]1CN(c2ncc(Cl)c(N)n2)CCN1C(=O)NCCC1CCN(Cc2ccccc2)CC1 [5-32, (2R)-4-(4-amino-5-chloropyrimidin-2-yl)-N-[2-(1-benzylpiperidin-4-yl)ethyl]-2-methylpiperazine-1-carboxamide] | > 1000 nM | > 1000 nM | > 1000 nM | < 10 nM | 10 to 100 nM |
| C[C@@H]1CN(c2cc(F)c(F)c(F)c2)CCN1C(=O)NCCC1CCN(Cc2ccc3[nH]ccc3c2)CC1 [6-1, (2R)-N-{2-[1-(1H-indol-5-ylmethyl)piperidin-4-yl]ethyl}-2-methyl-4-(3,4,5-trifluorophenyl)piperazine-1-carboxamide] | 100 to 1000 nM | 100 to 1000 nM | 100 to 1000 nM | < 10 nM | < 10 nM |
| C[C@@H]1CN(c2cc(F)c(F)c(F)c2)CCN1C(=O)NCCC1CCN(Cc2cccc3c2OCC3)CC1 [6-3, (2R)-N-{2-[1-(2,3-dihydro-1-benzofuran-7-ylmethyl)piperidin-4-yl]ethyl}-2-methyl-4-(3,4,5-trifluorophenyl)piperazine-1-carboxamide] | 100 to 1000 nM | > 1000 nM | 100 to 1000 nM | < 10 nM | 10 to 100 nM |
| C[C@@H]1CN(c2cc(F)c(F)c(F)c2)CCN1C(=O)NCCC1CCN(Cc2ccc(F)cc2)CC1 [6-4, (2R)-N-(2-{1-[(4-fluorophenyl)methyl]piperidin-4-yl}ethyl)-2-methyl-4-(3,4,5-trifluorophenyl)piperazine-1-carboxamide] | 100 to 1000 nM | > 1000 nM | > 1000 nM | < 10 nM | 100 to 1000 nM |
| C[C@@H]1CN(c2cc(F)c(F)c(F)c2)CCN1C(=O)NCCC1CCN(Cc2cccs2)CC1 [6-26, (2R)-2-methyl-N-{2-[1-(thiophen-2-ylmethyl)piperidin-4-yl]ethyl}-4-(3,4,5-trifluorophenyl)piperazine-1-carboxamide] | 100 to 1000 nM | > 1000 nM | > 1000 nM | < 10 nM | 10 to 100 nM |
| C[C@@H]1CN(c2cc(F)c(F)c(F)c2)CCN1C(=O)NCCC1CCN(Cc2ccc(O)cc2)CC1 [6-27, (2R)-N-(2-{1-[(4-hydroxyphenyl)methyl]piperidin-4-yl}ethyl)-2-methyl-4-(3,4,5-trifluorophenyl)piperazine-1-carboxamide] | 100 to 1000 nM | > 1000 nM | 100 to 1000 nM | < 10 nM | 10 to 100 nM |
| Cc1ccccc1CN1CCC(CCNC(=O)N2CCN(c3ncc(C(F)(F)F)cn3)C[C@H]2C)CC1 [6-35, (2R)-2-methyl-N-(2-{1-[(2-methylphenyl)methyl]piperidin-4-yl}ethyl)-4-[5-(trifluoromethyl)pyrimidin-2-yl]piperazine-1-carboxamide] | 100 to 1000 nM | > 1000 nM | 100 to 1000 nM | < 10 nM | 10 to 100 nM |
| C[C@@H]1CN(c2ncc(C(F)(F)F)cn2)CCN1C(=O)NCCC1CCN(Cc2cccc(F)c2)CC1 [6-36, (2R)-N-(2-{1-[(3-fluorophenyl)methyl]piperidin-4-yl}ethyl)-2-methyl-4-[5-(trifluoromethyl)pyrimidin-2-yl]piperazine-1-carboxamide] | 100 to 1000 nM | > 1000 nM | > 1000 nM | < 10 nM | 100 to 1000 nM |
| C[C@@H]1CN(c2ncc(C(F)(F)F)cn2)CCN1C(=O)NCCC1CCN(Cc2ccc(F)cc2)CC1 [6-37, (2R)-N-(2-{1-[(4-fluorophenyl)methyl]piperidin-4-yl}ethyl)-2-methyl-4-[5-(trifluoromethyl)pyrimidin-2-yl]piperazine-1-carboxamide] | 100 to 1000 nM | > 1000 nM | > 1000 nM | < 10 nM | 10 to 100 nM |
| C[C@@H]1CN(c2ncc(C(F)(F)F)cn2)CCN1C(=O)NCCC1CCN(Cc2cccc(C#N)c2)CC1 [6-40, (2R)-N-(2-{1-[(3-cyanophenyl)methyl]piperidin-4-yl}ethyl)-2-methyl-4-[5-(trifluoromethyl)pyrimidin-2-yl]piperazine-1-carboxamide] | 100 to 1000 nM | > 1000 nM | 100 to 1000 nM | < 10 nM | 10 to 100 nM |
| C[C@@H]1CN(c2ncc(C#N)cn2)C[C@H](C)N1C(=O)NCCC1CCN(Cc2ccc(O)cc2)CC1 [6-42, (2R,6S)-4-(5-cyanopyrimidin-2-yl)-N-(2-{1-[(4-hydroxyphenyl)-methyl]piperidin-4-yl}ethyl)-2,6-dimethylpiperazine-1-carboxamide] | > 1000 nM | > 1000 nM | 100 to 1000 nM | < 10 nM | 10 to 100 nM |
| C[C@@H]1CN(c2ncc(C#N)cn2)C[C@H](C)N1C(=O)NCCC1CCN(Cc2cccc(F)c2)CC1 [6-46, (2R,6S)-4-(5-cyanopyrimidin-2-yl)-N-(2-{1-[(3-fluorophenyl)-methyl]piperidin-4-yl}ethyl)-2,6-dimethylpiperazine-1-carboxamide] | > 1000 nM | > 1000 nM | > 1000 nM | < 10 nM | < 10 nM |
